{"source": "ChEMBL document CHEMBL1124716", "about": "“Structure and activity of hydrogenated derivatives of (+)-5-methyl-10,11-dihydro-5H-dibenzo[a,d]cyclohepten-5,10-imine (MK-801)” (J Med Chem, 1990)", "key": {"[1]": {"assay": "N-methyl-D-aspartate glutamate receptor antagonist activity was determined in rat cortical slice preparation", "assay_type": "functional"}, "[2]": {"assay": "Ability to inhibit [3H]-MK-801 binding to N-methyl-D-aspartate glutamate receptor of rat cortical membranes"}}, "note": "pIC50: −log10 of the molar value."}
{"smiles": "CC12NC(Cc3ccccc31)CC1CCCCC12", "note": "(stereo not given)", "values": [{"measurement": "Kb", "setting": "[1]", "value": 250, "unit": "nM"}, {"measurement": "pIC50", "setting": "[2]", "value": 6.79}]}
{"smiles": "CC12N[C@H](CC3=C1CCCC3)c1ccccc12", "values": [{"measurement": "Kb", "setting": "[1]", "value": 270, "unit": "nM"}, {"measurement": "pIC50", "setting": "[2]", "value": 6.71}]}
{"smiles": "CC12N[C@H](CC3CCCCC31)c1ccccc12", "note": "(stereo not given in full)", "values": [{"measurement": "Kb", "setting": "[1]", "value": 130, "unit": "nM"}, {"measurement": "pIC50", "setting": "[2]", "value": 6.73}]}
{"smiles": "CC12N[C@H](Cc3ccccc31)C1=CCCCC12", "note": "(stereo not given in full)", "values": [{"measurement": "Kb", "setting": "[1]", "value": 300, "unit": "nM"}, {"measurement": "pIC50", "setting": "[2]", "value": 7.22}]}
{"smiles": "CN1C2(C)c3ccccc3C1(C)C1CCCCC12", "note": "(stereo not given)", "values": [{"measurement": "pIC50", "setting": "[2]", "value": 6.95}]}
{"smiles": "CC12N[C@H](CC3=C1CCCC3)C1CCCCC12", "note": "(stereo not given in full)", "values": [{"measurement": "Kb", "setting": "[1]", "value": 280, "unit": "nM"}, {"measurement": "pIC50", "setting": "[2]", "value": 7.10}]}
{"smiles": "CN1[C@@H]2Cc3ccccc3[C@@]1(C)C1CCCCC12", "note": "(stereo not given in full)", "values": [{"measurement": "Kb", "setting": "[1]", "value": 290, "unit": "nM"}, {"measurement": "pIC50", "setting": "[2]", "value": 7.02}]}
{"smiles": "CC12N[C@H](Cc3ccccc31)C1CCCCC12", "note": "(stereo not given in full)", "values": [{"measurement": "Kb", "setting": "[1]", "value": 230, "unit": "nM"}, {"measurement": "pIC50", "setting": "[2]", "value": 7.80}]}
{"smiles": "OCCC12N[C@H](Cc3ccccc31)C1CCCCC12", "note": "(stereo not given in full)", "values": [{"measurement": "Kb", "setting": "[1]", "value": 240, "unit": "nM"}, {"measurement": "pIC50", "setting": "[2]", "value": 6.66}]}
{"smiles": "COc1ccc2c(c1)C1(C)N[C@@H]2CC2CCCCC21", "note": "(stereo not given in full)", "values": [{"measurement": "Kb", "setting": "[1]", "value": 310, "unit": "nM"}, {"measurement": "pIC50", "setting": "[2]", "value": 6.62}]}
{"smiles": "CC12N[C@@H](C3CCCCC31)[C@H](O)c1ccccc12", "note": "(stereo not given in full)", "values": [{"measurement": "Kb", "setting": "[1]", "value": 250, "unit": "nM"}, {"measurement": "pIC50", "setting": "[2]", "value": 7.16}]}
{"smiles": "CC12N[C@H](CC3CCCCC31)C1CCCCC12", "note": "(stereo not given in full)", "values": [{"measurement": "Kb", "setting": "[1]", "value": 800, "unit": "nM"}, {"measurement": "pIC50", "setting": "[2]", "value": 7.46}]}
{"smiles": "OCCC12N[C@](O)(Cc3ccccc31)C1CCCCC12", "note": "(stereo not given in full)", "values": [{"measurement": "Kb", "setting": "[1]", "value": 770, "unit": "nM"}, {"measurement": "pIC50", "setting": "[2]", "value": 6.40}]}
{"smiles": "CC12N[C@H](Cc3ccccc31)C1=C2CC=CC1", "values": [{"measurement": "pIC50", "setting": "[2]", "value": 7.70}]}
{"smiles": "CC12N[C@H](Cc3ccccc31)C1=CC=CCC12", "note": "(stereo not given in full)", "values": [{"measurement": "Kb", "setting": "[1]", "value": 270, "unit": "nM"}, {"measurement": "pIC50", "setting": "[2]", "value": 7.68}]}
{"smiles": "CC12NC(Cc3ccccc31)c1ccccc12", "note": "(single isomer, unassigned)", "values": [{"measurement": "Kb", "setting": "[1]", "value": 130, "unit": "nM"}, {"measurement": "pIC50", "setting": "[2]", "value": 7.52}]}
